We go through 5 molecules from patent US20060276523A1 (priority 2003, published 2006).

Read-outs that look alike come from different tables or passages of the source.

Test [1] concerns isolated rabbit thoracic aorta preparations. The test is described as follows: Studies on vascular tone: vasorelaxation of noradrenaline-precontracted aortic rings. The test is classed as cell-based. The following applies: rabbit aortic rings precontracted with noradrenaline 1 μM; for IC50: functional endothelium, read-out: IC50 (μM) ± sem (vasorelaxation). How it is done: The ability of the nitroderivatives of ARB to induce vasorelaxation in comparison to native ARB, was tested in vitro in isolated rabbit thoracic aorta preparations (Wanstall J. C. et al., Br. J. Pharmacol., 134:463-472, 2001). Male New Zealand rabbits were anaesthetized with thiopental-Na (50 mg/kg, iv), sacrificed by exsanguinations and then the thorax was opened and the aorta dissected. Aortic ring preparations (4 mm in length) were set up in physiological salt solution (PSS) at 37° C. in small organ chambers (5 ml). The composition of PSS was (mM): NaCl 130, NaHCO3 14.9, KH2PO4 1.2, MgSO4 1.2, HEPES 10, CaCl2, ascorbic acid […] and glucose 1.1 (95% O2/5% CO2; pH 7.4). Each ring was mounted under 2 g passive tension. Isometric tension was recorded with a Grass transducer (Grass FT03) attached to a BIOPAC MP150 System. Preparations were allowed to equilibrate for 1 h, and then contracted submaximally with noradrenaline (NA, 1 μM) and, when the contraction was stable, acetylcholine (ACh, 10 μM) was added. A relaxant response to ACh indicated the presence of a functional endothelium. […] When a stable precontraction was reached, a cumulative concentration-response curve to either of the vasorelaxant agents was obtained in the presence of a functional endothelium. Each arterial ring was exposed to only one combination of inhibitor and vasorelaxant. Moreover, the effect of the soluble guanylyl cyclase inhibitor ODQ (1-H-(1,2,4)-oxadiazol(4,3-a)quinoxalin-1-one) on vasorelaxation elicited by the compounds was examined preincubating the aortic rings with ODQ (10 μM) for 20 min.
Responses to relaxing agents are expressed as a percentage of residual contraction and plotted against concentration of test compound. IC50 values (where IC50 is the concentration producing 50% of the maximum relaxation to the test compound) were interpolated from these plots.
During the experimental period, the plateau obtained with NA was stable without significant spontaneous loss of contraction in the aortic rings.

Another test relates to human platelets. The test is described as follows: Antiplatelet activity: U46619-induced platelet aggregation in platelet rich plasma (Born method). The class given is cell-based. The following applies: 2 min, human PRP, aggregating agent U46619, incubation 2 min at 37° C., read-out: Platelet aggregation (PRP) (incubation time: 2 min) IC50. The procedure: Aggregating agent used was U46619, a TxA2 analog, based on the evidence that this agonist is sensitive to the effects of nitric oxide. Compounds were incubated at 37° C. for 2 min before adding the aggregating agent. Aggregation was followed for 5 min and the maximal amplitude (cm) was measured. DMSO (0.05% final concentration) was used as vehicle. Compounds were tested at concentrations ranging from 10 to 100 μM.

Test [2] deals with spontaneously hypertensive rats (SHRs). The test is described as follows: Antihypertensive activity in conscious spontaneously hypertensive rats (telemetry). The following applies: SHR; for Systolic blood pressure (mmHg), 30 min: 30 min after dosing; for Systolic blood pressure (mmHg), 30 min / Systolic blood pressure (mmHg), 12 hrs / Systolic blood pressure (mmHg), 24 hrs: losartan 10 mg/kg po, EX. 2 12 mg/kg po (equimolar); for Systolic blood pressure (mmHg), 12 hrs: 12 hrs after dosing; for Systolic blood pressure (mmHg), 24 hrs: 24 hrs after dosing; for Systolic blood pressure (mmHg), Baseline: groups losartan 10 mg/kg po, EX. 2 12 mg/kg po. The class given is in vivo. An excerpt:
Systolic blood pressure (SBP) and heart rate were monitored by telemetry at different time points after dosing.

A further test concerns RAW 264.7 macrophages. The experiment in a line: Inhibition of LPS-induced nitrite accumulation (Griess reaction). The test is classed as cell-based. The following applies: for Nitrite (% vs vehicle): 25 μM, LPS 1 μg/ml for 16 hrs, RAW 264.7. How it is done: The experiments were performed using RAW 264.7 monocyte macrophage cell line. Cells were stimulated in the presence of lipopolysaccharide (LPS) (1 μg/ml) for 16 hrs. At the end of the incubation, the culture media were collected and analyzed for nitrite content using a standard Griess reaction.
The results reported in Table 2 are expressed as % of nitrite content for each treatment vs. LPS-treated samples.

Regarding `CCCCc1nc(Cl)c(COC(=O)CCCO[N+](=O)[O-])n1Cc1ccc(-c2ccccc2-c2nn[nH]n2)cc1` [EX. 2, 2-butyl-4-chloro-1-[[2′-(1H-tetrazol-5-yl)[1,1′-biphenyl]-4-yl]methyl]-1H-imidazole-5-methanol 4-nitrooxybutanoic acid ester], the IC50 in test [1] (Oryctolagus cuniculus) stood at 15 ± 3 µM. Also, in the test with human platelets, the IC50 turned out to be 11 µM. Moreover, in test [2] (daily oral dose for 3 days), the “Systolic blood pressure (mmHg), 30 min” value is recorded as 115 mmHg; the “Systolic blood pressure (mmHg), 12 hrs” value was determined as 126 mmHg; the “Systolic blood pressure (mmHg), 24 hrs” value was determined as 128 mmHg; the “reduction in blood pressure levels over the treatment period (in words)” value is “able to induce a clear reduction in blood pressure levels”. The “Systolic blood pressure (mmHg), Baseline” value in test [2] is listed as 143 mmHg.
As to `CCCCc1nc(Cl)c(COC(=O)CCCCCO[N+](=O)[O-])n1Cc1ccc(-c2ccccc2-c2nnn[nH]2)cc1` [EX. 5, 2-butyl-4-chloro-1-[[2′-(H-tetrazol-5-yl)[1,1′-biphenyl]-4-yl]methyl]-1H-imidazole-5-methanol 6-nitrooxyhexanoic acid ester], the IC50 in test [1] came out at 18 ± 6 µM.
For the molecule `CCCCc1nc(Cl)c(COC(=O)c2cccc(CO[N+](=O)[O-])c2)n1Cc1ccc(-c2ccccc2-c2nn[nH]n2)cc1` [EX. 4, 2-butyl-4-chloro-1-[[2′-(1H-tetrazol-5-yl)[1,1′-biphenyl]-4-yl]methyl]-1H-imidazole-5-methanol 3-(nitrooxymethyl) benzoic acid ester], the IC50 in test [1] (Oryctolagus cuniculus) is 54 ± 16 µM. Further, in the test with RAW 264.7 macrophages, the “Nitrite (% vs vehicle)” value was determined as 61 ± 3 % vs vehicle. Besides, in the test on RAW 264.7 macrophages (RAW 264.7, LPS), the “inhibition of accumulation of nitrites induced by LPS (in words)” value was “able to inhibit the accumulation of nitrites induced by LPS”.
Take `CCCCc1nc(Cl)c(CO)n1Cc1ccc(-c2ccccc2-c2nn[nH]n2)cc1` [Losartan, reference compound]: the IC50 in test [1] (Oryctolagus cuniculus) is more than 100 µM. In addition, the “relaxation of aortic rings (in words)” value in test [1] is listed as “did not produce relaxation at any of the concentration tested”. For the same molecule, the “Nitrite (% vs vehicle)” value in the test on RAW 264.7 macrophages worked out at 99 ± 9 % vs vehicle. In test [2] (daily oral dose for 3 days), the “Systolic blood pressure (mmHg), 30 min” value stood at 133 mmHg; the “Systolic blood pressure (mmHg), 12 hrs” value came to 135 mmHg; the “Systolic blood pressure (mmHg), 24 hrs” value is 136 mmHg. The “Systolic blood pressure (mmHg), Baseline” value in test [2] is recorded as 143 mmHg.
`CCCCc1nc(Cl)c(COC(=O)c2ccc(CO[N+](=O)[O-])cc2)n1Cc1ccc(-c2ccccc2-c2nn[nH]n2)cc1` [EX. 1, 2-butyl-4-chloro-1-[[2′-(1H-tetrazol-5-yl)[1,1′-biphenyl]-4-yl]methyl]-1H-imidazole-5-methanol 4-(nitrooxymethyl) benzoic acid ester]: the IC50 in test [1] (Oryctolagus cuniculus) came out at 33 ± 12 µM; in the test with human platelets, 5 µM.
